A melting point compilation (Tetko et al.; mined from patent text by program, amines drawn as free bases though some values may be those of a salt)

| Structure (SMILES) | melting point [°C] |
| --- | --- |
| CNC(=O)C(CCN(C)C)(c1ccccc1)C(O)c1ccccc1 (centres undefined) | 107 to 115 |
| COc1ccc(N(Cc2ccc(N(C)C)cc2)C(=O)C2CCCc3c(O)cccc32)cc1 (centres undefined) | 195 to 197 |
| OCCCOc1nc(N2CCCCC2)c2nc(OCCCO)nc(N3CCCCC3)c2n1 | 154 to 156 |
| COC(=O)c1nsc(N)n1 | 202 to 205 |
| COc1ccc(Cn2nnnc2C(=O)Nc2cc(C#N)cc(NC(=O)c3nnnn3Cc3ccc(OC)cc3)c2Cl)cc1 | 223 to 225 |
| CCn1c(=O)c2c(ncn2CCCCC2CO2)n(CC)c1=O (centres undefined) | 58 to 59 |
| O=C(Nc1ccccc1)Nc1ccccn1 | 186 to 188 |
| COC(=O)c1ccc(CN2CCN(CC(C)O)CC2)cc1 (centres undefined) | 63 to 64 |
| O=S1N=C(NCCCN(Cc2cccs2)c2ccccn2)C(NCc2ccncc2)=N1 (centres undefined) | 129 to 130 |
| CC1=CN2C(=NC(c3ccc(C)cc3)C2C(=O)C(=O)O)C=C1 (centres undefined) | 190 to 195 |
| COc1cc(CN(C)Cc2ccccc2)ccc1NC(=O)Nc1cnc(C)cn1 | 142 to 143 |
| NC(c1ccccc1)c1ccc(C(N)c2ccccc2)cc1 (centres undefined) | 123 to 127 |
| CCOc1cc2c(cc1OCC)CCCC(C(=O)N1CCN(Cc3cc(OC)c(OC)c(OC)c3)CC1)=C2 | 133 to 134 |
| NCc1ccccc1NC1CCN(Cc2ccccc2)CC1 | 117 to 118 |
| CCCCCC12CCC(c3ccc(C#N)c(F)c3)(CC1)CC2 | 63 |
| Cc1ccc(CCCO)c(NCc2ccc3nc(NCCCN4CCOCC4)n(Cc4cc(Br)ccc4O)c3c2)c1 | 134 |

The remaining lines, values ahead:

| melting point [°C] | Structure (SMILES) |
| --- | --- |
| 47 to 49 | CC(C)c1ccc(C#N)nc1 |
| 153 to 157 | COc1ccc(C(=O)Nc2ccc(C)c(Cl)c2)cc1N |
| 170 to 173 | CN1C(=O)N(c2cccc(Cl)c2)C(=O)C1S(=O)(=O)c1ccc(F)cc1 (centres undefined) |
| 163 to 164 | O=C1[C@H]2CCC[C@H]2N(C(=O)CBr)c2ccc(Cl)cc2N1Cc1ccccc1 (relative stereo) |
| 127 to 129 | O=C1C(=O)N(Cc2ccc(O)cc2)c2ccc(S(=O)(=O)N3CCCC3COc3cccnc3)cc21 (centres undefined) |
| 98 to 100 | COC(=O)CCc1cc2cc(Cl)ccc2n1S(=O)(=O)c1cccc(C(F)(F)F)c1 |
| 238 to 242 | Nc1nc2ccc3cc(S(=O)(=O)Nc4ccc(C(=O)N[C@@H](CCC(=O)O)C(=O)O)cc4)c(Br)cc3c2c(=O)[nH]1 |
| 228 to 229 | Nc1oc2ccc([N+](=O)[O-])cc2c(=O)c1C=O |
| 194 to 196 | CC1Oc2c(cc(CN3CCN(c4ccc(C#N)cc4)CC3)cc2C2CC2)NC1=O (centres undefined) |
| 205 to 206 | CS(=O)c1ccnc(-c2nc(=O)c3ccccc3s2)c1 (centres undefined) |
| 152 to 153 | CCCCOc1cc(/C=C/S(=O)(=O)NC(=O)OC(C)(C)C)n(Cc2ccc(Cl)cc2Cl)n1 |
| 96 to 97 | CNS(=O)(=O)CCc1ccc(NN=CCCC#N)cc1 |
| > 300 | CCOC(=O)C(=O)Nc1cc(NC=O)ccc1O |
| 106 to 109 | Cn1ncc2c(c1=O)SCCNC2Cc1ccc(Cl)cc1 (centres undefined) |
| 178 to 179 | COC(=O)C1=NC2=COc3ccc(C)cc3N2C1C(=O)O (centres undefined) |
| 156 to 158 | Cc1cc2c(cc1Cl)N(C(=O)CN1CCN(C)CC1)c1ccccc1N(C)S2(=O)=O |
| 207 to 208 | CC(C)COc1ccc(NC(=O)c2cnn(-c3ccc(F)cc3)c2O)cc1C#N |
| 93 to 96 | CCOC(=O)c1ccc(NCCc2cccs2)cc1 |
| 191 to 192 | CS(=O)(=O)c1ccc(-n2cncc2-c2ccc(Cl)nc2)cc1 |
| 217 to 219 | O=C(O)CCCc1cc2cc(Cl)ccc2n1S(=O)(=O)c1cccc2cccnc12 |
| 188 to 191 | Cc1nc(N2CCN(CC3CC3)C2=O)sc1C(=O)NCc1ccncn1 |
| 141 to 144 | CCN1CCC(=O)N(c2c(C)cccc2Cl)C1=S |
| 260 to 262 | O=C(Nc1ccccc1)C1=C(O)c2ccc3ccccc3c2S(=O)(=O)N1 |
